IC50, inhibition and CC50 data for 17 compounds are collected here from ChEMBL document CHEMBL4330117, “Synthesis, biological evaluation and molecular docking of benzimidazole grafted benzsulfamide-containing pyrazole ring derivatives as novel tubulin polymerization inhibitors” (Bioorg Med Chem, 2019).

The test system of data set [1] is A549. Put plainly: Antiproliferative activity against human A549 cells after 24 hrs by MTT assay. The class given is functional, cell-based. The conditions noted are these: A549, 24 h. (Formazan colour is commonly taken as a measure of viable cells.)
Data set [2] concerns HeLa. Kind of data set: Antiproliferative activity against human HeLa cells after 24 hrs by MTT assay. Type of data set: functional, cell-based.
Data set [3] concerns HepG2. Kind of data set: Antiproliferative activity against human HepG2 cells after 24 hrs by MTT assay. The conditions noted are these: HepG2, 24 h. Type of data set: functional, cell-based.
Data set [4] concerns MCF7. Kind of data set: Antiproliferative activity against human MCF7 cells after 24 hrs by MTT assay. Type of data set: functional, cell-based. The conditions noted are these: MCF7, 24 h.
Data set [5] addresses T1, Tubulin (Bos taurus) (UniProt Q6B856+Q862L2+Q862F3). Put plainly: Inhibition of [3H]colchicine binding to bovine brain tubulin at 5 uM.
Data set [6] concerns the target T1, Tubulin (Bos taurus). Kind of data set: Inhibition of vinblastine binding to bovine brain tubulin at 5 uM.
Data set [7] can be described thus: Cytotoxicity against HEK293T cells after 24 hrs by MTT assay. Type of data set: cell-based, HEK-293T. The settings on record: human.
A short description of data set [8]: Cytotoxicity against mouse primary hepatocytes after 24 hrs by MTT assay. Type of data set: cell-based, Hepatocyte.

One may read the IC50 as the point on the concentration scale where inhibition reaches its midpoint. The inhibition is the change of the read-out against control, counted positive when it falls. For orientation: CC50 means the concentration at which the toxic effect on the cells reaches its halfway point. Low readings indicate greater toxicity to the cells, high ones lower toxicity to the cells. `Cc1ccc(-c2nn(-c3ccccc3)cc2-c2nc3ccccc3n2S(=O)(=O)c2ccc(Cl)cc2)cc1`: the IC50 in data set [1] was 3550 nM; in data set [2] it was 4060 nM; in data set [3], 5520 nM; in data set [4] it was 5930 nM. Besides, the inhibition turned out to be 38% in data set [5] and 0.24% in data set [6]. The CC50 at 24 h in data set [7] was 167000 nM; in data set [8], 216000 nM.

For the compound `O=S(=O)(c1ccccc1)n1c(-c2cn(-c3ccccc3)nc2-c2ccc(F)cc2)nc2ccccc21`, the IC50 in data set [1] was 550 nM; in data set [2], 680 nM; in data set [3], 720 nM; in data set [4], 690 nM. The inhibition in data set [5] amounted to 62%; in data set [6], 0.05%. Besides, the CC50 at 24 h in data set [7] is 96300 nM; in data set [8], 231000 nM.

On to `Cc1ccc(-c2nn(-c3ccccc3)cc2-c2nc3ccccc3n2S(=O)(=O)c2ccc(C(F)(F)F)cc2)cc1`, for which the IC50 is 1460 nM in data set [1], 1520 nM in data set [2], 1930 nM in data set [3] and 2340 nM in data set [4]. Besides, the inhibition in data set [5] stood at 55%; in data set [6] it was 0.21%. The CC50 at 24 h in data set [7] came out at 182000 nM; in data set [8], 89300 nM.

In the case of `O=[N+]([O-])c1ccc(S(=O)(=O)n2c(-c3cn(-c4ccccc4)nc3-c3ccc(C(F)(F)F)cc3)nc3ccccc32)cc1`, the IC50 is 790 nM in data set [1], 950 nM in data set [2], 1070 nM in data set [3] and 1130 nM in data set [4]. Besides, the values for the inhibition in data set [5] and in data set [6] were 63% and 0.14%, respectively. Further, the CC50 at 24 h was determined as 163000 nM in data set [7] and 178000 nM in data set [8].

`O=S(=O)(c1ccc(Br)cc1)n1c(-c2cn(-c3ccccc3)nc2-c2ccc(C(F)(F)F)cc2)nc2ccccc21`: the IC50 in data set [1] amounted to 1690 nM; in data set [2], 1860 nM; in data set [3], 2160 nM; in data set [4], 2470 nM. Besides, the values for the inhibition in data set [5] and in data set [6] were 52% and -0.07 to 2.1%, respectively. Also, the figures for the CC50 at 24 h in data set [7] and in data set [8] were 185000 nM and 167000 nM, respectively.

As for `COc1cc2c(c(OC)c1OC)-c1ccc(OC)c(=O)cc1[C@@H](NC(C)=O)CC2` [COLCHICINE], the half-inhibitory concentration (IC50) in data set [1] amounted to 220 nM; in data set [2], 360 nM; in data set [3], 420 nM; in data set [4] it was 440 nM. Further, the CC50 at 24 h in data set [7] came to 129000 nM; in data set [8] it was 153000 nM.

Take `O=S(=O)(c1ccc(Br)cc1)n1c(-c2cn(-c3ccccc3)nc2-c2ccc(F)cc2)nc2ccccc21`: the IC50 in data set [1] is 1720 nM; in data set [2] it was 2040 nM; in data set [3], 2550 nM; in data set [4], 2630 nM. In addition, the inhibition in data set [5] came to 51%; in data set [6] it was 3.02%. Moreover, the figures for the CC50 at 24 h in data set [7] and in data set [8] were 239000 nM and over 300000 nM, respectively.

As for `O=S(=O)(c1ccc(C(F)(F)F)cc1)n1c(-c2cn(-c3ccccc3)nc2-c2ccc(C(F)(F)F)cc2)nc2ccccc21`, the IC50 in data set [1] came out at 860 nM; in data set [2] it was 970 nM; in data set [3], 1120 nM; in data set [4] it was 1240 nM. In addition, the values for the inhibition in data set [5] and in data set [6] were 54% and 0.05%, respectively. Moreover, the results for the CC50 at 24 h in data set [7] and in data set [8] were 63200 nM and 137000 nM, respectively.

Consider `COc1ccc(S(=O)(=O)n2c(-c3cn(-c4ccccc4)nc3-c3ccc(C(F)(F)F)cc3)nc3ccccc32)cc1`, for which the IC50 in data set [1] is 170 nM; in data set [2], 250 nM; in data set [3], 370 nM; in data set [4], 420 nM. For the same compound, the results for the inhibition in data set [5] and in data set [6] were 85% and 0.03%, respectively. Also, the CC50 at 24 h in data set [7] is over 300000 nM; in data set [8] it was 87400 nM.

Regarding `Cc1ccc(-c2nn(-c3ccccc3)cc2-c2nc3ccccc3n2S(=O)(=O)c2ccc(Br)cc2)cc1`, the IC50 in data set [1] was determined as 1860 nM; in data set [2], 2340 nM; in data set [3], 3040 nM; in data set [4] it was 3160 nM. For the same compound, the inhibition in data set [5] was 48%; in data set [6], -0.38 to 1.4%. For the same compound, the CC50 at 24 h in data set [7] is 159000 nM; in data set [8], over 300000 nM.

Turning to `Cc1ccc(-c2nn(-c3ccccc3)cc2-c2nc3ccccc3n2S(=O)(=O)c2cc(C)ccc2C)cc1`, the IC50 in data set [1] was found to be 270 nM; in data set [2] it was 370 nM; in data set [3] it was 460 nM; in data set [4] it was 510 nM. The inhibition came out at 82% in data set [5] and 0.07% in data set [6]. In addition, the values for the CC50 at 24 h in data set [7] and in data set [8] were 82200 nM and 231000 nM, respectively.

As for `O=S(=O)(c1ccccc1)n1c(-c2cn(-c3ccccc3)nc2-c2ccc(C(F)(F)F)cc2)nc2ccccc21`, the IC50 in data set [1] came out at 480 nM; in data set [2], 560 nM; in data set [3], 590 nM; in data set [4], 630 nM. The inhibition in data set [5] came to 61%; in data set [6], 0.52%. Moreover, the values for the CC50 at 24 h in data set [7] and in data set [8] were 128000 nM and 186000 nM, respectively.

On to `O=S(=O)(c1ccc(F)cc1)n1c(-c2cn(-c3ccccc3)nc2-c2ccc(C(F)(F)F)cc2)nc2ccccc21`, for which the IC50 in data set [1] is 1740 nM; in data set [2], 2190 nM; in data set [3], 2730 nM; in data set [4] it was 3120 nM. The inhibition in data set [5] came out at 54%; in data set [6] it was 0.65%. Besides, the CC50 at 24 h amounted to 157000 nM in data set [7] and 83300 nM in data set [8].

`Cc1ccc(-c2nn(-c3ccccc3)cc2-c2nc3ccccc3n2S(=O)(=O)c2ccc(C)cc2)cc1`: the IC50 in data set [1] stood at 460 nM; in data set [2], 480 nM; in data set [3], 520 nM; in data set [4], 570 nM. Also, the inhibition was determined as 66% in data set [5] and 0.18% in data set [6]. Besides, the CC50 at 24 h in data set [7] is 79300 nM; in data set [8], 102000 nM.

Regarding `Cc1ccc(C)c(S(=O)(=O)n2c(-c3cn(-c4ccccc4)nc3-c3ccc(F)cc3)nc3ccccc32)c1`, the IC50 in data set [1] is 200 nM; in data set [2], 320 nM; in data set [3], 410 nM; in data set [4] it was 430 nM. The inhibition in data set [5] amounted to 88%; in data set [6], 0.62%. Besides, the figures for the CC50 at 24 h in data set [7] and in data set [8] were 54200 nM and 122000 nM, respectively.

Take `FC(F)(F)c1ccc(-c2nn(-c3ccccc3)cc2-c2nc3ccccc3[nH]2)cc1`: the IC50 in data set [1] was 3620 nM; in data set [2], 4670 nM; in data set [3], 6030 nM; in data set [4], 6330 nM. The inhibition is 44% in data set [5] and -0.03 to 2.1% in data set [6]. For the same compound, the CC50 at 24 h came to 167000 nM in data set [7] and 159000 nM in data set [8].

In the case of `Cc1ccc(-c2nn(-c3ccccc3)cc2-c2nc3ccccc3n2S(=O)(=O)c2ccc(F)cc2)cc1`, the IC50 in data set [1] came to 3240 nM; in data set [2], 3670 nM; in data set [3] it was 5060 nM; in data set [4] it was 5270 nM. For the same compound, the inhibition in data set [5] turned out to be 53%; in data set [6], 0.07%. Further, the CC50 at 24 h in data set [7] came to 128000 nM; in data set [8] it was 167000 nM.
